BigSolDB 2.1

O=C(O)c1cccc2ccccc12
solubility (mole fraction)
Conditions	in acetic acid	in ethanol	in ethyl acetate	in isobutanol	in isopropanol	in methanol	in methyl acetate	in n-butanol	in n-propanol
293.15 K	0.0172	0.0282	0.0294	0.0187	0.0251	0.0206	0.0257	0.03	0.027
298.15 K	0.0194	0.0311	0.0329	0.0213	0.0284	0.0229	0.0301	0.0344	0.0302
303.15 K	0.0224	0.0356	0.0374	0.0257	0.034	0.0269	0.0335	0.0389	0.0351
308.15 K	0.0257	0.0402	0.0418	0.0311	0.0401	0.0304	0.0387	0.0444	0.0407
313.15 K	0.0296	0.0457	0.0472	0.0364	0.0472	0.0351	0.043	0.0514	0.0461
318.15 K	0.0334	0.0513	0.0534	0.0427	0.0544	0.0392	0.0498	0.0605	0.0536
323.15 K	0.0383	0.0574	0.06	0.0502	0.0636	0.0443	0.055	0.0684	0.0604
328.15 K	0.0439	0.0654	0.0673	0.0588	0.0731	0.0496	0.0622	0.079	0.0702
333.15 K	0.0503	0.0738	0.0754	0.0685	0.0852	0.0557	–	0.0901	0.0795
